From article PMC10247784, “Physiological activation of human and mouse bitter taste receptors by bile acids” (Communications Biology, 2023)

Test system: HEK293T-Gα16gust44 cells transfected with empty vector (mock)
Test: Calcium imaging assay (FLIPR), empty vector control (mock)
Type: cell-based
Experimental: This set of bile acids was chosen because of their commercial availability in high purities, their diversity within the class of bile acids and their previous detection and quantitation in human blood. Stock solutions were prepared in DMSO.
As basal growth medium for the HEK293T-Gα16gust44 cell line[17],[59] served Dulbecco’s modified eagle medium (DMEM) (Thermo Fisher Scientific, Darmstadt, Germany) supplemented with 10 % fetal bovine serum (Sigma-Aldrich, Steinheim, Germany), 2 mM L-glutamine (Sigma-Aldrich, Steinheim, Germany), 100 units/ml penicillin (Sigma Aldrich, Steinheim, Germany) and 100 µg/ml streptomycin (Sigma Aldrich, Steinheim, Germany). Growth conditions were 37 °C, 5 % CO2 and saturated air-humidity[60].
HEK293T-Gα16gust44 cells were seeded on poly-D-lysine (10 µg/ml) coated 96-well plates to reach a confluence of 40-60 % the next day. For transient transfection 150 ng of plasmid DNA containing the receptor of interest and 0.3 µl lipofectamine 2000 (Thermo Fisher Scientific, Darmstadt, Germany) per well were used and transfection took place according to the manual of lipofectamine 2000. […] The empty vector DNA (mock) was transfected as negative control[14],[41].
Cells were loaded using the calcium-sensitive fluorescent dye Fluo-4-AM (Abcam, Cambridge, Great Britain) in the presence of 2.5 mM probenecid (Sigma-Aldrich, Steinheim, Germany) the day after transfection[13],[41]. 1 h after loading, cells were washed with C1 buffer using a BioTek Cell Washer, incubated in the dark for half an hour and washed again. For automated agonist application and measurement of fluorescence changes, a FLIPR^TETRA device (Molecular Devices, San José, United States) was used. Viability of cells was tested by application of 100 nM Somatostatin 14 (Bachem, Bubendorf, Switzerland)[42].
Measured data were negative control corrected by subtracting the signal of the mock-transfected cells and exported to Microsoft Excel using the FLIPR software ScreenWorks 4.2. In Microsoft Excel software, standardization of maximum fluorescence intensities to the basal fluorescence and normalization to the buffer-only control was done to calculate the relative fluorescence changes (ΔF/F).
Initial screening experiments performed in duplicate wells were confirmed by at least one replication and representative traces were selected for display. All dose-response relationships were determined by three independent experiments (biological replicates) performed in duplicates (technical replicates). Threshold concentrations, defined as lowest substance concentrations leading to statistically significant elevated fluorescence changes in receptor-transfected cells compared with empty vector-transfected cells, were determined using SigmaPlot with Student’s t-test to evaluate statistical significance (p < 0.01).

## C[C@H](CCC(=O)O)[C@H]1CC[C@H]2[C@@H]3[C@H](O)C[C@@H]4C[C@H](O)CC[C@]4(C)[C@H]3C[C@H](O)[C@]12C [Cholic Acid, cholic acid]
Conc. 0,01 mM, Mock (sheet TAS2R39)
  Δ F/F: -0.01821
Conc. 0,1 mM, Mock (sheet TAS2R39)
  Δ F/F: -0.02224
Conc. 0,03 mM, Mock (sheet TAS2R39)
  Δ F/F: -0.01697
Conc. 0,3 mM, Mock (sheet TAS2R39)
  Δ F/F: -0.04388
Conc. 0,001 mM, Mock (sheet TAS2R39)
  Δ F/F: -0.01201
Conc. 1 mM, Mock (sheet TAS2R39)
  Δ F/F: -0.08707
Conc. 0,003 mM, Mock (sheet TAS2R39)
  Δ F/F: -0.01404
Mock (sheet Tas2r123), conc. 0,01 mM
  Δ F/F: -0.0003322
Mock (sheet Tas2r123), conc. 0,1 mM
  Δ F/F: -0.0005726
Mock (sheet Tas2r123), conc. 0,03 mM
  Δ F/F: -0.0005964
Mock (sheet Tas2r123), conc. 0,3 mM
  Δ F/F: 0.0008115
Mock (sheet Tas2r123), conc. 0,0003 mM
  Δ F/F: -0.001363
Mock (sheet Tas2r123), conc. 0,001 mM
  Δ F/F: -0.001187
Mock (sheet Tas2r123), conc. 0,003 mM
  Δ F/F: -0.0002243
Mock (sheet Tas2r126), conc. 0,01 mM
  Δ F/F: -0.02005
Mock (sheet Tas2r126), conc. 0,1 mM
  Δ F/F: -0.02997
Mock (sheet Tas2r126), conc. 0,03 mM
  Δ F/F: -0.01829
Mock (sheet Tas2r126), conc. 0,3 mM
  Δ F/F: -0.04711
Mock (sheet Tas2r126), conc. 0,001 mM
  Δ F/F: -0.01156
Mock (sheet Tas2r126), conc. 1 mM
  Δ F/F: -0.07412
Mock (sheet Tas2r126), conc. 0,003 mM
  Δ F/F: -0.01876
Mock (sheet Tas2r144), conc. 0,01 mM
  Δ F/F: 0.0002394
Mock (sheet Tas2r144), conc. 0,1 mM
  Δ F/F: -0.0009617
Mock (sheet Tas2r144), conc. 0,03 mM
  Δ F/F: 0.0001706
Mock (sheet Tas2r144), conc. 0,3 mM
  Δ F/F: 2.3167e-5
Mock (sheet Tas2r144), conc. 0,003 mM
  Δ F/F: -0.001282
Mock, sheet TAS2R4, conc. 0,01 mM
  Δ F/F: -0.001675
Mock, sheet TAS2R4, conc. 0,1 mM
  Δ F/F: 0.0001605
Mock, sheet TAS2R4, conc. 0,03 mM
  Δ F/F: -0.001772
Mock, sheet TAS2R4, conc. 0,3 mM
  Δ F/F: 0.0004382
Mock, sheet TAS2R4, conc. 0,0003 mM
  Δ F/F: 0.001019
Mock, sheet TAS2R4, conc. 0,001 mM
  Δ F/F: -0.0001368
Mock, sheet TAS2R4, conc. 0,003 mM
  Δ F/F: -0.001078
Mock, sheet TAS2R14, conc. 0,01 mM
  Δ F/F: -0.01829
Mock, sheet TAS2R14, conc. 0,1 mM
  Δ F/F: -0.02451
Mock, sheet TAS2R14, conc. 0,03 mM
  Δ F/F: -0.01803
Mock, sheet TAS2R14, conc. 0,3 mM
  Δ F/F: -0.04097
Mock, sheet TAS2R14, conc. 0,001 mM
  Δ F/F: -0.0206
Mock, sheet TAS2R14, conc. 1 mM
  Δ F/F: -0.06455
Mock, sheet TAS2R14, conc. 0,003 mM
  Δ F/F: -0.02081
Mock, sheet Tas2r105, conc. 0,01 mM
  Δ F/F: -0.01514
Mock, sheet Tas2r105, conc. 0,1 mM
  Δ F/F: -0.02586
Mock, sheet Tas2r105, conc. 0,03 mM
  Δ F/F: -0.01353
Mock, sheet Tas2r105, conc. 0,3 mM
  Δ F/F: -0.04947
Mock, sheet Tas2r105, conc. 0,001 mM
  Δ F/F: -0.01259
Mock, sheet Tas2r105, conc. 1 mM
  Δ F/F: -0.08731
Mock, sheet Tas2r105, conc. 0,003 mM
  Δ F/F: -0.01645
Mock, sheet Tas2r108, conc. 0,01 mM
  Δ F/F: -0.0241
Mock, sheet Tas2r108, conc. 0,1 mM
  Δ F/F: -0.03289
Mock, sheet Tas2r108, conc. 0,03 mM
  Δ F/F: -0.0233
Mock, sheet Tas2r108, conc. 0,3 mM
  Δ F/F: -0.05172
Mock, sheet Tas2r108, conc. 0,001 mM
  Δ F/F: -0.01866
Mock, sheet Tas2r108, conc. 1 mM
  Δ F/F: -0.07524
Mock, sheet Tas2r108, conc. 0,003 mM
  Δ F/F: -0.01483
Mock, sheet Tas2r117, conc. 0,01 mM
  Δ F/F: -0.001513
Mock, sheet Tas2r117, conc. 0,1 mM
  Δ F/F: -0.0006881
Mock, sheet Tas2r117, conc. 0,03 mM
  Δ F/F: -0.0006551
Mock, sheet Tas2r117, conc. 0,3 mM
  Δ F/F: -0.001135
Mock, sheet Tas2r117, conc. 0,0003 mM
  Δ F/F: -0.002036
Mock, sheet Tas2r117, conc. 0,001 mM
  Δ F/F: -0.0005906
Mock, sheet Tas2r117, conc. 0,003 mM
  Δ F/F: -0.001196
conc. 0,01 mM, Mock (sheet TAS2R1)
  Δ F/F: -0.002604
conc. 0,1 mM, Mock (sheet TAS2R1)
  Δ F/F: -0.002131
conc. 0,03 mM, Mock (sheet TAS2R1)
  Δ F/F: -0.002188
conc. 0,3 mM, Mock (sheet TAS2R1)
  Δ F/F: -0.001094
conc. 0,001 mM, Mock (sheet TAS2R1)
  Δ F/F: -0.001978
conc. 0,003 mM, Mock (sheet TAS2R1)
  Δ F/F: -0.003067
